pIC50: −log10 of the molar value. In brackets after ≈: the same amount, converted by molar mass.
Assays:
A. baumannii 1258916 = experiment: microbe, parasite or virus in culture; type: cell-based, Acinetobacter baumannii; conditions: Acinetobacter baumannii, 1258916, read-out: MIC, A. baumannii 1258916
[1] = target: T1, PBP3 from Acinetobacter baumannii (ATCC 19606) (Acinetobacter baumannii, UniProt A0ABX6CK25); experiment: Bocillin-FL fluorescence polarization competition binding, A. baumannii PBP3; conditions: fluorescence polarization competition binding assay using Bocillin-FL; read-out: A. baumannii PBP3 Potency
T1 sequence (A0ABX6CK25 64-610): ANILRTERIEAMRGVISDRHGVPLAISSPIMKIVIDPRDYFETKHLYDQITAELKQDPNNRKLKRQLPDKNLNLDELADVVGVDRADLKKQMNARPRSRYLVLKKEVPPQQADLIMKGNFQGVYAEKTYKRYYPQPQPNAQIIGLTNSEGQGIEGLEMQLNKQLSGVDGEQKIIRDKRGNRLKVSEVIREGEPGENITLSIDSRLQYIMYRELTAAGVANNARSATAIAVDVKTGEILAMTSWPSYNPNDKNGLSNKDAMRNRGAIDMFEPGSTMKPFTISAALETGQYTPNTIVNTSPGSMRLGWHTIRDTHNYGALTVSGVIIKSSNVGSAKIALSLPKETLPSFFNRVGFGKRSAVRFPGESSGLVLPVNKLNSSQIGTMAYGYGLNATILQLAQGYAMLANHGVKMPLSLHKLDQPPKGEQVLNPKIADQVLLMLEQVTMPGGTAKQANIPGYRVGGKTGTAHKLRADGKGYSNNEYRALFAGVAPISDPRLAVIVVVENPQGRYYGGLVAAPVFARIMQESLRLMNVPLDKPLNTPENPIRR
Summary of the method: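 Purified PBP was preincubated with inhibitor (E. coli PBP3 1.5 μM, 30 min; P. aeruginosa PBP3 0.75 μM, A. baumannii PBP3 0.2 μM and PBP1a 1 μM, 15 min), then Bocillin-FL (0.1 μM; 0.05 μM for PBP1a) added and FP read up to 60 min. EC50 = 50% loss of bound probe.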

N. gonorrhoeae WHO Q = experiment: Liquid broth MIC in Fastidious broth; conditions: Neisseria gonorrhoeae, read-out: Minimum Inhibitory Concentration (MIC), N. gonorrhoeae WHO Q
A. baumannii CDC-0036 = experiment: microbe, parasite or virus in culture; type: cell-based; conditions: Acinetobacter baumannii, CDC0036, read-out: MIC, A. baumannii CDC-0036
N. gonorrhoeae WHO X = experiment: Liquid broth MIC in Fastidious broth; conditions: Neisseria gonorrhoeae, read-out: Minimum Inhibitory Concentration (MIC), N. gonorrhoeae WHO X
N. gonorrhoeae WHO M = experiment: Liquid broth MIC in Fastidious broth; conditions: Neisseria gonorrhoeae, read-out: Minimum Inhibitory Concentration (MIC), N. gonorrhoeae WHO M
P. aeruginosa CDC-0095 = experiment: microbe, parasite or virus in culture; type: cell-based; conditions: Pseudomonas aeruginosa, CDC0095, read-out: Minimum inhibitory concentration, P. aeruginosa CDC-0095
N. gonorrhoeae WHO G = experiment: Liquid broth MIC in Fastidious broth; conditions: Neisseria gonorrhoeae, read-out: Minimum Inhibitory Concentration (MIC), N. gonorrhoeae WHO G
Protocol: Additional antibacterial testing of the series was performed in 8 reference strains of N. gonorrhoeae (ATCC 49226, FA1090, MS 11, WHO G, WHO L, WHO M, WHO K, WHO X, WHO Z, WHO Q, CDC-0197). ATCC 49226, FA1090, MS11, WHO G, WHO L, and WHO M produce wild type or wild-type like PBP2. WHO K, WHO X, WHO Z, WHO Q, and CDC-0197 produce mosaic PBP2. Liquid broth-based assays were used for antibacterial testing of PBP inhibitors in Neisseria gonorrhoeae. Briefly, cryo-preserved bacterial cultures of clinical strains were streaked for isolation on Chocolate Agar (72 g/L (2×) GC Agar Base (BD #228950) and 2% (2×) Hemoglobin was autoclaved at 121° C. for 20 minutes to sterilize. Once cooled to ˜50° C. the 2×GC Agar Base and 2× Hemoglobin solutions are combined and 1% IsoVitaleX Enrichment (BD #211876) was added to the solution). Strains were incubated at 36° C. and 5% CO2 to allow growth of colonies, 24 hours before inoculum preparation. 2-fold serial dilutions of test compounds were conducted in a 96 well plate with a final volume of 75 μL per well at 2-fold the final desired concentration in Fastidious broth (Remel #R07664). For preparation of assay inoculum, a direct suspension was prepared by aseptically swabbing 10-15 colonies from agar plates into culture tubes containing 2 mL of fresh sterile saline. After the dilution plates were set up, direct suspensions were then diluted in a cuvette containing sterile saline and the optical density was measured at 600 nm. Inocula were diluted such that 75 μL of this culture in Fastidious broth results in a starting bacterial concentration of 5×10^5 CFU/mL when added to the dilution plates. The plates were incubated for ˜24 hours at 36° C. and 5% CO2.

N. gonorrhoeae WHO Z = experiment: Liquid broth MIC in Fastidious broth; conditions: Neisseria gonorrhoeae, read-out: Minimum Inhibitory Concentration (MIC), N. gonorrhoeae WHO Z
N. gonorrhoeae WHO K = experiment: Liquid broth MIC in Fastidious broth; conditions: Neisseria gonorrhoeae, read-out: Minimum Inhibitory Concentration (MIC), N. gonorrhoeae WHO K
N. gonorrhoeae FA1090 = experiment: Liquid broth MIC in Fastidious broth; conditions: Neisseria gonorrhoeae, FA1090, read-out: Minimum Inhibitory Concentration (MIC), N. gonorrhoeae FA 1090

Structure (SMILES) | MIC (A. baumannii 1258916) | pIC50 [1] | MIC (N. gonorrhoeae WHO Q) | MIC (A. baumannii CDC-0036) | MIC (N. gonorrhoeae WHO X) | MIC (N. gonorrhoeae WHO M) | MIC (P. aeruginosa CDC-0095) | MIC (N. gonorrhoeae WHO G) | MIC (N. gonorrhoeae WHO Z) | MIC (N. gonorrhoeae WHO K) | MIC (N. gonorrhoeae FA1090)
CN(CCN1CCN(C(=O)N[C@@H](C(=O)N[C@H]2Cc3ccc(F)c(C(=O)O)c3OB2O)c2cc(F)c(O)c(O)c2Cl)C(=O)C1=O)Cc1ccc(N)nc1 [Example 209, (R)-3-((R)-2-(4-(2-(((6-aminopyridin-3-yl)methyl)(methyl)amino)ethyl)-2,3-dioxopiperazine-1-carboxamido)-2-(2-chloro-5-fluoro-3,4-dihydroxyphenyl)acetamido)-7-fluoro-2-hydroxy-3,4-dihydro-2H-benzo[e][1,2]oxaborinine-8-carboxylic acid] | < 1 µg/mL | > 5.00 | 16 to 32 µg/mL (≈ 21.5 to 42.9 µM) | 2 to 4 µg/mL (≈ 2.68 to 5.36 µM) | > 64 µg/mL | 4 to 8 µg/mL (≈ 5.36 to 10.7 µM) | < 1 µg/mL | 4 to 8 µg/mL (≈ 5.36 to 10.7 µM) | 16 to 32 µg/mL (≈ 21.5 to 42.9 µM) | > 64 µg/mL | 1 to 2 µg/mL (≈ 1.34 to 2.68 µM)
O=C(NCCCN1CCN(C(=O)NC(C(=O)N[C@H]2Cc3ccc(F)c(C(=O)O)c3OB2O)c2cc(F)c(O)c(O)c2Cl)C(=O)C1=O)c1ccccc1 (stereo partly drawn) [Example 202, (3R)-3-(2-(4-(3-benzamidopropyl)-2,3-dioxopiperazine-1-carboxamido)-2-(2-chloro-5-fluoro-3,4-dihydroxyphenyl)acetamido)-7-fluoro-2-hydroxy-3,4-dihydro-2H-benzo[e][1,2]oxaborinine-8-carboxylic acid] | < 1 µg/mL | > 5.00 | > 64 µg/mL | 2 to 4 µg/mL (≈ 2.69 to 5.38 µM) | > 64 µg/mL | 16 to 32 µg/mL (≈ 21.5 to 43 µM) | 2 to 4 µg/mL (≈ 2.69 to 5.38 µM) | 16 to 32 µg/mL (≈ 21.5 to 43 µM) | > 64 µg/mL | > 64 µg/mL | 4 to 8 µg/mL (≈ 5.38 to 10.8 µM)
O=C(NCCN1CCN(C(=O)NC(C(=O)N[C@H]2Cc3ccc(F)c(C(=O)O)c3OB2O)c2cc(F)c(O)c(O)c2Cl)C1=O)c1cccc(O)c1 (stereo partly drawn) [Example 244, (3R)-3-(2-(2-chloro-5-fluoro-3,4-dihydroxyphenyl)-2-(3-(2-(3-hydroxybenzamido)ethyl)-2-oxoimidazolidine-1-carboxamido)acetamido)-7-fluoro-2-hydroxy-3,4-dihydro-2H-benzo[e][1,2]oxaborinine-8-carboxylic acid] | < 1 µg/mL | > 5.00 | > 64 µg/mL | 2 to 4 µg/mL (≈ 2.79 to 5.57 µM) | > 64 µg/mL | 16 to 32 µg/mL (≈ 22.3 to 44.6 µM) | 32 to 64 µg/mL (≈ 44.6 to 89.2 µM) | 16 to 32 µg/mL (≈ 22.3 to 44.6 µM) | > 64 µg/mL | > 64 µg/mL | 4 to 8 µg/mL (≈ 5.57 to 11.1 µM)
O=C(CN1CCN(C(=O)NC(C(=O)N[C@H]2Cc3ccc(F)c(C(=O)O)c3OB2O)c2cc(F)c(O)c(O)c2Cl)C(=O)C1=O)Nc1ccccc1 (stereo partly drawn) [Example 232, (3R)-3-(2-(2-chloro-5-fluoro-3,4-dihydroxyphenyl)-2-(2,3-dioxo-4-(2-oxo-2-(phenylamino)ethyl)piperazine-1-carboxamido)acetamido)-7-fluoro-2-hydroxy-3,4-dihydro-2H-benzo[e][1,2]oxaborinine-8-carboxylic acid] | 2 to 4 µg/mL (≈ 2.79 to 5.59 µM) | > 5.00 | > 64 µg/mL | 8 to 16 µg/mL (≈ 11.2 to 22.4 µM) | > 64 µg/mL | 4 to 8 µg/mL (≈ 5.59 to 11.2 µM) | 2 to 4 µg/mL (≈ 2.79 to 5.59 µM) | 16 to 32 µg/mL (≈ 22.4 to 44.7 µM) | 16 to 32 µg/mL (≈ 22.4 to 44.7 µM) | > 64 µg/mL | 1 to 2 µg/mL (≈ 1.4 to 2.79 µM)

— patent publication US20240270762A1, “PENICILLIN-BINDING PROTEIN INHIBITORS” (priority 2021, published 2024)
